According to patent US20240245804A1 (priority 2021, published 2024):
“Also recorded” adds a separate entry of the source.

B1: CdaA: c-di-AMP cyclase from Listeria monocytogenes, wild type, expressed from plasmid in HEK 293T cells (protein, UniProt Q45589 1-273, looked up)
Cyclic di-AMP synthase CdaA: MAFEDIPFLQYLGNAVDILLVWYVIYKLIMVIRGTKAVQLLKGIVVIVLVRMASQYLGLSTLQWLMDQAITWGFLAIIIIFQPELRRALEQLGRGRFFSRSGTPVEEAQQKTIEAITKAINYMAKRRIGALLTIERDTGMGDYIETGIPLNAKVSSELLINIFIPNTPLHDGAVIMKNNEIAAAACYLPLSESPFISKELGTRHRAAVGISEVTDSLTIIVSEETGGVSVAKNGDLHRELTEEALKEMLEAEFKKNTRDTSSNRWYWRGKKNG

Legend:
STING [1] = type: cell-based, mouse
STING [2] = type: cell-based, mouse; remark: listed apart in the source
STING [3] = type: cell-based, mouse; remark: listed apart in the source
STING [4] = type: cell-based, mouse; remark: listed apart in the source
[5] = tested on: THP1-Blue-ISG reporter cells; type: cell-based

Molecule | STING agonism evidenced by induction of a variety of inflammatory genes (STING [1]) | STING agonism / activation of the pathway (STING [2]) | induction of nitrite (STING [3]) | induction of IFNß (STING [4]) | SEAP activity (activation of interferon signaling) [5]
Nc1nc2c(ncn2[C@@H]2O[C@@H]3COP(=O)(O)O[C@H]4[C@@H](O)[C@H](n5cnc6c(N)ncnc65)O[C@@H]4COP(=O)(O)O[C@@H]2[C@@H]3O)c(=O)[nH]1 [cGAMP, 2′3′-cGAMP] | agonists of STING | – | – | – | –
Nc1ncnc2c1ncn2[C@@H]1O[C@@H]2COP(=O)(O)O[C@H]3[C@@H](O)[C@H](n4cnc5c(N)ncnc54)O[C@@H]3COP(=O)(O)O[C@H]2[C@H]1O [c-di-AMP] | agonists of STING; also recorded: stronger activation | agonists of STING; also recorded: stronger activation | more potent induction | more potent induction | –
B1 | – | – | – | – | displayed activity
